What was measured:
[1] = tested on: A549 cells; test: Cell cytotoxicity assay A549 (CellTiter-Glo, 72 hours); assay type: cell-based; conditions: Table 3; 72 hours, top concentration of 50 μM; read-out: Cytotox A549 EC50
In short: (§1)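 A549 cells were plated overnight, then exposed for 72 h at 37 °C to a 10-point compound titration (top 50 μM, 0.5% DMSO final). Viability was read as CellTiter-Glo luminescence after 20 min at room temperature.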

[2] = target: Recombinant human JAK2 kinase domain protein (Residues 812-1132) (Homo sapiens, UniProt O60674); test: JAK2 biochemical assay (microfluidic mobility shift, peptide phosphorylation); conditions: Enzyme JAK2 Ki (nM), 25 μM ATP, 0.2 nM total JAK2
Procedure: JAK1 and JAK2 Biochemical Assays
The in vitro biochemical assays quantify JAK-catalyzed phosphorylation of a synthetic peptide, as detected using a LabChip® EZ Reader II microfluidic mobility shift instrument (PerkinElmer; Waltham, Mass.). […] Y-1B is fluorescently labeled on the N-terminus with 5-FAM (5-carboxyfluorescein) and contains a single tyrosine residue (Y) that can be phosphorylated by JAK activity. The substrate peptide stock is prepared in DMSO at 5 mM.
In each titration experiment, test compound was tested in duplicate at each of the twelve concentrations. Blank reactions contained ATP, peptide, and DMSO, but no JAK or test compound, whereas uninhibited control reactions contained ATP, peptide, JAK, and DMSO, but no test compound.
Peptide plus ATP mixture (24 μL) was added to 1 μL of test compound in DMSO (or DMSO alone). The reactions were initiated by adding 25 μL of JAK enzyme to the inhibitor/peptide/ATP mixture before thoroughly mixing the resultant solution. Reactions were incubated at room temperature (22° C.-23° C.) in a final volume of 50 μL per well in 384-well plates.
In each reaction, the residual Y-1B substrate and the phospho-peptide product generated were separated using the EZ Reader II instrument. Electrophoretic separation of molecules of product from molecules of substrate was achieved using downstream and upstream voltages of −500 and −2600 V, respectively, at an operating pressure of −1.3 psi.
The extent (or percent) of conversion of substrate to product was calculated from the corresponding peak heights in the electropherogram using HTS Well Analyzer software, Version 5.2 (PerkinElmer), and the following equation (Equation 1): % conversion=[P÷(S+P)]×100 Equation 1 where S and P represent the peak heights of the substrate and product, respectively. After any baseline signal from blank wells containing no JAK was subtracted from the signal of all test wells, the % conversion data were converted to fractional activity as shown in Equation 2, where vi and vo are the % conversion in the presence and absence of test compound, respectively.

[3] = tested on: JAK2 pathway: P-STAT5 in TF-1 human erythroleukemia cells + EPO; test: P-STAT5 TF-1+Erythropoietin (EPO) assay; assay type: cell-based; conditions: Homo sapiens, TF-1, TF-1 cells, EPO stimulation; read-out: Cellular JAK2 PSTAT5 TF-l + EPO IC50
[4] = tested on: JAK1 pathway: P-STAT6 in TF-1 human erythroleukemia cells + IL-13; test: P-STAT6 TF-1+Interleukin-13 (IL-13) assay; assay type: cell-based; conditions: Homo sapiens, TF-1, TF-1 cells, IL-13 stimulation; read-out: Cellular JAK1 PSTAT6 TF-1 + IL13 IC50
[5] = Cell cytotoxicity assay HEK-293T (CellTiter-Glo, 72 hours); assay type: cell-based; conditions: human, HEK-293T cells, Table 3; 72 hours, top concentration of 50 μM; read-out: Cytotox K-293 EC50
In short: (§2)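 HEK-293T or Jurkat E6-1 cells plated at 450 cells/well were treated the next day with a 10-point titration from 50 μM top (0.5% DMSO final). After 72 h at 37° C, viability was read by CellTiter-Glo luminescence.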

[6] = Cell cytotoxicity assay A549 (CellTiter-Glo, 72 hours); assay type: cell-based; conditions: human, A549 cells, Table 3; 72 hours, top concentration of 50 μM; read-out: Cytotox A549 EC50
In short: as §1

[7] = Cell cytotoxicity assay Jurkat (CellTiter-Glo, 72 hours); assay type: cell-based; conditions: human, Jurkat clone E6-1 cells, Table 3; 72 hours, top concentration of 50 μM; read-out: Cytotox Jurkat EC50
In short: as §2

Chain of Recombinant human JAK2 kinase domain protein (Residues 812-1132) (O60674 812-1132): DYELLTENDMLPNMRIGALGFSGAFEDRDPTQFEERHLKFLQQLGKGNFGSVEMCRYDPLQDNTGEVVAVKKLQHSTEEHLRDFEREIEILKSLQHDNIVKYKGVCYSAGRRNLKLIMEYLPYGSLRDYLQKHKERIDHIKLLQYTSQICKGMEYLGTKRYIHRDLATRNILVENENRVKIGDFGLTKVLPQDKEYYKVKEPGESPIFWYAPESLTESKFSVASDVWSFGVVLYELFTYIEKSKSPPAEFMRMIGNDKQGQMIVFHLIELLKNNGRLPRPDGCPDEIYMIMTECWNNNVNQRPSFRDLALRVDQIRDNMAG

| Compound | EC50 [1] [nM] | Ki [2] [nM] | IC50 [3] [nM] | IC50 [4] [nM] | EC50 at 72 h [5] [nM] | EC50 at 72 h [6] [nM] | EC50 at 72 h [7] [nM] |
| --- | --- | --- | --- | --- | --- | --- | --- |
| CC(CO)S(=O)(=O)c1ccc(OC(F)F)c(-c2nn(C)cc2NC(=O)c2cnn3cccnc23)c1 (single isomer, unassigned) [Example 24, N-[3-[2-(difluoromethoxy)-5-(2-hydroxy-1-methyl-ethyl)sulfonyl-phenyl]-1-methyl-pyrazol-4-yl]pyrazolo[1,5-a]pyrimidine-3-carboxamide] | ≥ 50000 | 0.19 |  |  |  |  |  |
| C[C@H](Cn1cc(S(=O)(=O)c2ccc(OC(F)F)c(-c3nn(C)cc3NC(=O)c3cnn4cccnc34)c2)cn1)N(C)C [Example 59, N-[3-[2-(difluoromethoxy)-5-[1-[(2R)-2-(dimethylamino)propyl]pyrazol-4-yl]sulfonyl-phenyl]-1-methyl-pyrazol-4-yl]pyrazolo[1,5-a]pyrimidine-3-carboxamide] |  | 0.54 | 28 | 13 | 14000 | 43000 | 30000 |
